Experimental findings from BindingDB's records for doi:10.1021/jm980260f (Sapienza University of Rome, 1999) are described below.

This assay deals with T1, Gag-Pol polyprotein [588-1027]/[588-1147] (Human immunodeficiency virus 1, UniProt P04585).
T1 construct: 588-1027; 588-1147
As to the kind of experiment: HIV-1 RT Assay. The conditions noted are these: pH 7.8; 37 °C.

`CCC(C)Sc1nc(O)cc(Cc2c(Cl)cccc2Cl)n1` (stereo unspecified) [2-(butan-2-ylsulfanyl)-6-[(2,6-dichlorophenyl)methyl]-3,4-dihydropyrimidin-4-one] returned an IC50 of 100 nM. This counts as sub-micromolar.
